Test results taken from publication PMC7616174, “Development of Novel 4-Arylpyridin-2-one and 6-Arylpyrimidin-4-one Positive Allosteric Modulators of the M1 Muscarinic Acetylcholine Receptor” (ChemMedChem, 2020).

Molecular target: T1, hM1 mAChR (Homo sapiens, UniProt P11229)
T1 construct: expressed in transfected cells
T1 sequence (P11229 1-460): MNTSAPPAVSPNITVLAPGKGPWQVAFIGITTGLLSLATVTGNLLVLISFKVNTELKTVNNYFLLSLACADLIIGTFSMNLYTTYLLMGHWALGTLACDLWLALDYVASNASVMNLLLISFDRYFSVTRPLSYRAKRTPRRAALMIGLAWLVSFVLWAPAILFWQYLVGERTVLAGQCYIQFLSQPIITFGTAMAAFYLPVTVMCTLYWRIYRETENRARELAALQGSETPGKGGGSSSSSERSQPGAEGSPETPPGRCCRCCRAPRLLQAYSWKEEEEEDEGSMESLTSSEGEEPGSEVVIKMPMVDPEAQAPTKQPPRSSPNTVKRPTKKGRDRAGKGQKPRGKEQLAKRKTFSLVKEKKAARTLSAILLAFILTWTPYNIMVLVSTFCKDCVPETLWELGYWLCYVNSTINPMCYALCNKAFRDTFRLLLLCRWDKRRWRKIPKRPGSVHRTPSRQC
Experiment: IP1 accumulation assay (ACh concentration-response curves in absence or presence of modulator)
Assay type: cell-based
Details: FlpIn CHO hM1 cells, mean ± SEM, 3 experiments; for ΔpEC50 [1 μM]: change in ACh pEC50 in presence of M1 PAM compared to control curve / activation at 1 µM: 1 μM modulator; for activation at 1 µM: read-out: Δbaseline [1 μM]: change in basal response in presence of M1 PAM compared to control curve; for activation at 10 µM: read-out: Δbaseline [10 μM]: change in basal response in presence of M1 PAM compared to control curve
Protocol: Functional activity of the synthesized analogues as racemic mixtures was investigated in IP1 accumulation assays at the M1 mAChR, as described previously.[13–14] ACh concentration-response curves were generated in the absence or presence of a 1 and 10 μM concentration of each modulator. The change in baseline activity (Δbaseline) is an approximate measure of direct allosteric agonism (τB), whereas the pEC50 shift (ΔpEC50) is an approximate measure of functional cooperativity (αβ) of each modulator with ACh in the investigated signalling pathway. We aimed to identify modulators with various degrees of allosteric agonism and modulatory effects on ACh response, as these could generate distinct in vivo outcomes for applications in different conditions in the CNS or gastrointestinal (GI) tract.[[10g,h,j]]
The compounds were then fully characterised in two functional assays (Figure 2C and D); the Gq-coupled IP1 accumulation assay (Figure S2), which was used for the initial screening of the compounds, and a β-arrestin 2 recruitment assay (Figure S3). The operational efficacy (τB) values for the modulators and their functional cooperativity estimates with ACh (logαβACh) at both signalling pathways were estimated by applying an operational model of allosterism and agonism to the data [Eq. (3)],[16] and are listed in Table 5.
FlpIn CHO cells stably expressing the hM1 mAChR were seeded at 25000 per well of 96-well transparent cell culture plates and grown overnight. […] Cells were then stimulated with increasing concentration of ACh in the absence or presence of increasing concentrations of each modulator for 1 h at 37°C. […] Seven μL of cell lysates were transferred into wells of 384-well Proxiplates (Perki-nElmer Life Sciences), and IP1 levels were measured using the IP-One assay kit (Cisbio, Codolet, France). […] The signal was expressed as the HTRF ratio, interpolated from the standard curve, and normalized to the maximum response to ACh.
Changes in both baseline and pEC50 were quantified by subtracting the estimates at each M1 PAM concentrations with the control values. Propagation of the error on baseline and potency values were determined as follows [Eq. (1)]: σΔ=σPAM2+σcont.2 where σΔ is the standard error of the mean (SEM) for the change in value, and σPAM and σcont. are the SEM from the three-parameter logistic equation analysis in presence or absence of M1 PAM, respectively.
Functional interaction studies between ACh and allosteric modulators in IP1 and β-arrestin 2 recruitment assays were analysed according to a three-parameter logistic equation or the following operational model of allosterism and agonism [Eq. (3)].[16] E=Basal+(Em−Basal)([A](KB+αβ[B])+τB[B]EC50)^n/EC50n(KB+[B])^n+([A](KB+αβ[B])+τB[B]EC50)^n where Em is the maximal possible system response, and Basal is the response in the absence of agonist. [A] and [B] are concentrations of orthosteric and allosteric ligands, respectively. KB is the equilibrium dissociation constant of allosteric ligand, and EC50 is the concentration of orthosteric agonist required to achieve half maximal response. α and β represent the magnitude of the allosteric effects on orthosteric ligand affinity and efficacy, respectively; τB is the efficacy of allosteric ligand, and n is the slope factor of the transducer function that links occupancy to response.

Molecule	ΔpEC50 [1 μM]: change in ACh pEC50 in presence of M1 PAM compared to control curve	Δbaseline [10 μM]: change in basal response in presence of M1 PAM compared to control curve (10 μM modulator)	ΔpEC50 [10 μM]: change in ACh pEC50 in presence of M1 PAM compared to control curve (10 μM modulator)	activation at 1 µM	activation at 10 µM (10 μM modulator)
4-(2-(Benzyloxy)phenyl)-1-(2-hydroxycyclohexyl)pyridin-2(1H)-one [Compound 27d]	0.75±0.06	54.6±1.9 % of ACh maximal (Emax) response	1.83±0.11	–	–
COc1cccc(OCc2ccc(-c3cnn(C)c3)cc2)c1-c1cc(=O)n([C@H]2CCCC[C@@H]2O)cn1 (racemic) [Compound 26c, 3-(2-Hydroxycyclohexyl)-6-(2-methoxy-6-((4-(1-methyl-1H-pyra-zol-4-yl)benzyl)oxy)phenyl)pyrimidin-4(3H)-one]	0.02±0.06	–	–	1.37 ± 1.6%	5.99 ± 1.7%
Cc1ccc(OCc2ccc(-c3cnn(C)c3)cc2)c(-c2ccn(C3CCCCC3O)c(=O)c2)c1 (centres unmarked) [Compound 7a, 1-(2-Hydroxycyclohexyl)-4-(5-methyl-2-((4-(1-methyl-1H-pyrazol-4-yl)benzyl)oxy)phenyl)pyridin-2(1H)-one]	–	–	0.41±0.07	0.47 ± 2%	4.4 ± 2%
Cc1ccc(-c2ccn(C3CCCCC3O)c(=O)c2)c(OCc2ccc(-c3cnn(C)c3)cc2)c1 (centres unmarked) [Compound 7b, 1-(2-Hydroxycyclohexyl)-4-(4-methyl-2-((4-(1-methyl-1H-pyrazol-4-yl)benzyl)oxy)phenyl)pyridin-2(1H)-one]	–	–	0.75±0.08	3.5 ± 1.9%	10.7 ± 2%
Cc1cc(OCc2ccc(-c3cnn(C)c3)cc2)c(-c2ccn(C3CCCCC3O)c(=O)c2)cc1C (centres unmarked) [Compound 7c, 4-(4,5-Dimethyl-2-((4-(1-methyl-1H-pyrazol-4-yl)benzyl)oxy)phenyl)-1-(2-hydroxycyclohexyl)pyridin-2(1H)-one]	–	–	0.41±0.08	-1.7%	2.8 ± 1.9%
Cn1cc(-c2ccc(COc3ccncc3-c3ccn(C4CCCCC4O)c(=O)c3)cc2)cn1 (centres unmarked) [Compound 7d, 1’-(2-Hydroxycyclohexyl)-4-((4-(1-methyl-1H-pyrazol-4-yl)benzyl)oxy)-[3,4’-bipyridin]-2’(1’H)-one]	0.04±0.09	–	0.21±0.10	-1.09%	1.24 ± 3%
Cn1cc(-c2ccc(COc3cnccc3-c3ccn(C4CCCCC4O)c(=O)c3)cc2)cn1 (centres unmarked) [Compound 7e, 1-(2-Hydroxycyclohexyl)-3’-((4-(1-methyl-1H-pyrazol-4-yl)benzyl)oxy)-[4,4’-bipyridin]-2(1H)-one]	1.17±0.22	–	1.47±0.35	41.9 ± 4.4%	79.4 ± 2.9%
Cn1cc(-c2ccc(COc3cccc(O)c3-c3ccn(C4CCCCC4O)c(=O)c3)cc2)cn1 (centres unmarked) [Compound 7g, 4-(2-Hydroxy-6-((4-(1-methyl-1H-pyrazol-4-yl)benzyl)oxy)phenyl)-1-(2-hydroxycyclohexyl)pyridin-2(1H)-one]	0.14±0.19	–	0.35±0.34	12.8 ± 4.4%	45.8 ± 4.8%
Cn1cc(-c2ccc(Cn3cccc(-c4ccn(C5CCCCC5O)c(=O)c4)c3=O)cc2)cn1 (centres unmarked) [Compound 9, 1’-(2-Hydroxycyclohexyl)-1-(4-(1-methyl-1H-pyrazol-4-yl)benzyl)-[3,4’-bipyridine]-2,2’(1H,1’H)-dione]	0.12±0.09	–	0.69±0.08	5 ± 2%	5.6 ± 2%
Cn1cc(-c2ccc(COc3ccccc3-c3ccn(C4CCCCC4)c(=O)c3)cc2)cn1 [Compound 13b, 1-Cyclohexyl-4-(2-((4-(1-methyl-1H-pyrazol-4-yl)benzyl)oxy)phenyl)pyridin-2(1H)-one]	–	–	0.17±0.06	5 ± 1.7%	-1.9%
COC1CCCCC1n1ccc(-c2ccccc2OCc2ccc(-c3cnn(C)c3)cc2)cc1=O (centres unmarked) [Compound 14, 1-(2-Methoxycyclohexyl)-4-(2-((4-(1-methyl-1H-pyrazol-4-yl)benzyl)oxy)phenyl)pyridin-2(1H)-one]	0.03±0.06	–	0.96±0.07	5.8 ± 1.5%	22.1 ± 1.6%
Cn1cc(-c2ccc(COc3ccccc3-c3ccc(-c4ccccc4O)cc3)cc2)cn1 [Compound 19, 2“-((4-(1-Methyl-1H-pyrazol-4-yl)benzyl)oxy)-[1,1’:4’,1“-terphenyl]-2-ol]	–	–	0.27±0.06	–	–
Cn1cc(-c2ccc(COc3ccsc3-c3cc(=O)n(C4CCCCC4O)cn3)cc2)cn1 (centres unmarked) [Compound 26b, 3-(2-Hydroxycyclohexyl)-6-(3-((4-(1-methyl-1H-pyrazol-4-yl)benzyl)oxy)thiophen-2-yl)pyrimidin-4(3H)-one]	–	–	–	100%	100%
Cn1cc(-c2ccc(COc3cccc(O)c3-c3cc(=O)n(C4CCCCC4O)cn3)cc2)cn1 (centres unmarked) [Compound 26d, 6-(2-Hydroxy-6-((4-(1-methyl-1H-pyrazol-4-yl)benzyl)oxy)phenyl)-3-(2-hydroxycyclohexyl)pyrimidin-4(3H)-one]	1.49±0.42	–	–	82.1 ± 3%	100%
O=c1cc(-c2ccccc2OCc2ccc(-n3cccn3)cc2)ncn1C1CCCCC1O (centres unmarked) [Compound 27c, 6-(2-((4-(1H-Pyrazol-1-yl)benzyl)oxy)phenyl)-3-(2-hydroxycyclo-hexyl)pyrimidin-4(3H)-one]	–	–	–	100%	100%
COC1CCCCC1n1cnc(-c2ccccc2OCc2ccc(-c3cnn(C)c3)cc2)cc1=O (centres unmarked) [Compound 28a, 3-(2-Methoxycyclohexyl)-6-(2-((4-(1-methyl-1H-pyrazol-4-yl)benzyl)oxy)phenyl)pyrimidin-4(3H)-one]	0.40±0.24	–	0.26±0.55	53.7 ± 3.8%	72.9 ± 3.6%
